Consider one molecule from patent US9815863B2, “Hydrogen bond forming fluoro ketolides for treating diseases” (priority 2010, dated 2017).

Assay [1] relates to eukaryotic ribosome (rabbit reticulocyte lysate). The assay can be described thus: Rabbit reticulocyte cell-free translation system, luciferase synthesis. Format: biochemical. The note with it: concentrations up to 50 μM. Here is the method:
The rabbit reticulocyte cell-free translation system (Promega, Cat. No. L4540) was used to assay the effect of the drugs on activity of the eukaryotic ribosome. […] Polyadenylated luciferase mRNA (Promega, Cat. No. L4561) was denatured before use by incubating the RNA at 65° C. for 3 min and then placed on ice. Translation mix (2 μL) was mixed with the rabbit reticulocyte lysate to start the reaction. The translation mix contained 0.3 μL of denatured luciferase mRNA (0.3 μg), 0.2 μL of 1 mM amino acid mixture, 0.2 μL of ribonuclease inhibitor (8U, Roche, Cat. No. 03 335 399001), 0.4 μL of 2.5 M potassium chloride, and 0.9 μL of water. Reactions were incubated at 30° C. for 30 min and then placed on ice.

The subject of assay [2] is Streptococcus pneumoniae Pen^R, Tel^1/^R, Mac^R. The assay can be described thus: MIC against streptococci clinical isolates (Table 3). Format: cell-based. As to conditions: Streptococcus pneumoniae, S. pneumoniae Pen^R, 12 strains, constitutive ermB.
Assay [3] concerns S. aureus ribosomes (23S rRNA). The assay can be described thus: RNA footprinting (ribosome chemical probing), wild-type S. aureus ribosomes. Format: binding. The note with it: 100 μM antibiotic. As for the experimental part:
(§1) Ribosome chemical probing. rRNA probing was done following standard protocols (Merryman, C., and H. F. Noller. 1998. Footprinting and modification-interference analysis of binding sites on RNA, p. 237-253. In C. W. J. Smith (ed.), RNA:Protein Interactions, A Practical Approach. Oxford University Press, Oxford), with minor modifications. Briefly, 200 nM ribosomes were incubated with 100 μM antibiotic in 50 μL of buffer B (80 mM HEPES-KOH [pH 7.8], 20 mM MgCl2, 100 mM NH4Cl, 1.5 mM dithiothreitol) for 10 min at 37° C., followed by 10 min at 20° C. Modifying reagents (dimethyl sulfate [DMS], kethoxal, or 1-cyclohexyl-3-(2-morpholinoethyl)carbodiimide metho p-toluene sulfonate [CMCT]) were added and the modification reaction was carried out for 10 min at 37° C. After quenching the reaction and ethanol precipitation, rRNA was extracted and the distribution of modified nucleotides was assessed by primer extension.
(§2) Interactions of CEM-101 with wild-type E. coli and S. aureus ribosomes in solution. […] 1987. Chloramphenicol, erythromycin, carbomycin and vernamycin B protect overlapping sites in the peptidyl transferase region of 23S ribosomal RNA. Biochimie 69:879-884). Also included in this study was a C3-cladinose cousin of CEM-101, CEM-103, which lacks the C2-linked fluorine atom.

In assay [4] the test system is Streptococcus pneumoniae Pen^S, Tel^S, Mac^S. The assay can be described thus: MIC against streptococci clinical isolates (Table 3). As to conditions: Streptococcus pneumoniae, 10 strains. Format: cell-based.
In another assay the target is S. aureus ribosome. The assay can be described thus: Competition binding with [14C]erythromycin, S. aureus ribosome. As for the experimental part: (§3) Competition binding studies. Binding of erythromycin to E. coli and S. aureus ribosomes and competition experiments were done by size-exclusion chromatography using Bio-Gel P30 spin columns as described in Xiong, L., Y. Korkhin, and A. S. Mankin. 2005. Binding site of the bridged macrolides in the Escherichia coli ribosome. Antimicrob. Agents Chemother. 49:281-288.
(§4) For competition binding experiments, ribosomes (100 nM) were preincubated with 100 nM [^14C]erythromycin (48.8 mCi/mmol; PerkinElmer) in 160 μL of buffer A at 37° C. for 15 min, then at 20° C. for 10 min. Competing antibiotics were added at varying concentrations, and the binding mixture was incubated at 20° C. for 100 min. The reactions were loaded onto the spin columns and the amount of ribosome-associated radioactivity was measured as described above. Binding data were analyzed using Prism software (GraphPad). Cell free transcription-translation assays.

The subject of a further assay is E. coli ribosome. The assay can be described thus: Competition binding with [14C]erythromycin, E. coli ribosome. Here is the method: as §3, §4
Assay [5] has as its system bacterial protein synthesis (E. coli S30 extract). The assay can be described thus: E. coli cell-free transcription-translation (TnT) S30 system, firefly luciferase synthesis. The note with it: read-out: IC50 of inhibition of firefly luciferase synthesis, ribosomes 600 nM.
Assay [6] has as its system E. coli ribosomes (23S rRNA). The assay can be described thus: RNA footprinting (ribosome chemical probing), wild-type E. coli ribosomes. Format: binding. The note with it: 100 μM antibiotic. Here is the method:
as §1, §2

For assay [7], the system named is Streptococcus pyogenes Tel^R, Mac^R. The assay can be described thus: MIC against streptococci clinical isolates (Table 3). The class given is cell-based. As to conditions: Streptococcus pyogenes.
Assay [8] relates to Streptococcus pyogenes Tel^S, Mac^S. Described as above. Format: cell-based. The note with it: Streptococcus pyogenes, 10 strains.
Another assay concerns the target S. aureus 70S ribosomes. The assay can be described thus: Saturation (direct) binding of radiolabeled drug to S. aureus wild-type ribosomes, spin-column. Here is the method:
Ribosomes were prepared from E. coli, strain MRE 600, S. aureus strain ATCC 29212, or S. aureus strain N315 by standard protocols (Spedding™, G. 1990. Isolation and analysis of ribosomes from prokaryotes, eukaryotes, and organelles, p. 1-29. In G. Spedding (ed.), Ribosomes and protein synthesis, a practical approach. Oxford University Press, Oxford, United Kingdom; Adams, P. D., P. V. Afonine, G. Bunkoczi, V. B. Chen, I. W. Davis, N. Echols, J. J. Headd, L. W. Hung, G. J. Kapral, R. W. Grosse-Kunstleve, A. J. McCoy, N. W. Moriarty, R. Oeffner, R. J. Read, D. C. Richardson, J. S. Richardson, T. C. Terwilliger, and P. H. Zwart. 2010. PHENIX: a comprehensive Python-based system for macromolecular structure solution. Acta Crystallogr. D. Biol. Crystallogr. 66:213-221).
Competition binding studies. […]
Direct antibiotic binding experiments were done by incubating ribosomes at a 100 nM concentration with varying concentrations of radiolabeled drug in a total volume of 160 μL in buffer A (20 mM Tris-HCl [pH 7.5], 10 mM MgCl2, 150 mM NH4Cl, 6 mM 2-mercaptoethanol) at 37° C. for 15 min, then at 20° C. for 10 min. […] Radioactivity was measured in a scintillation counter and used to calculate the amount of the radiolabeled drug bound to ribosomes.

Each structure is given as a SMILES string. Values after ≈ are worked out from the molar mass of the structure shown.

One may read the MIC50 as an inhibitory concentration at the 50% level, which refers to growth in some studies and to a panel of isolates in others. By MIC90 is commonly meant an inhibitory concentration at the 90% level, which refers to growth in some studies and to a panel of isolates in others. Broadly, the Kd is the concentration at which binding is half-saturated. A higher Kd goes with weaker binding. As usually defined, the IC50 is the concentration that inhibits the measured activity by half.

Turning to `CC[C@H]1OC(=O)[C@@](C)(F)C(=O)[C@H](C)[C@@H](O[C@@H]2O[C@H](C)C[C@H](N(C)C)[C@H]2O)[C@](C)(OC)C[C@@H](C)C(=O)[C@H](C)[C@H]2N(CCCCn3cc(-c4cccc(N)c4)nn3)C(=O)O[C@]12C` [CEM-101], in [1], the “Effect on the synthesis of luciferase” value is recorded as “no effect”. In addition, the MIC50 amounted to 0.5 µg/mL (≈ 0.592 µM) in assay [2] (read-out: MIC50), 0.03 µg/mL (≈ 0.0355 µM) in assay [4] (read-out: MIC50), 0.125 µg/mL (≈ 0.148 µM) in assay [7] and 0.03 µg/mL (≈ 0.0355 µM) in assay [8] (read-out: MIC50). The MIC90 was 0.5 µg/mL (≈ 0.592 µM) in assay [2] (read-out: MIC90); 0.03 µg/mL (≈ 0.0355 µM) in assay [4] (read-out: MIC90); 0.25 µg/mL (≈ 0.296 µM) in assay [7] (S. pyogenes Tel^R, Mac^R, 9 strains (8 ermB, 1 ermA, constitutive), read-out: MIC90); 0.03 µg/mL (≈ 0.0355 µM) in assay [8] (read-out: MIC90). Also, the “Protection of A752 from DMS modification” value in assay [3] (S. aureus ribosomes) and in assay [6] (E. coli ribosomes) was “strongly protects” in each case. Besides, the “Protection of A2058 and A2059 in domain V of 23S rRNA from modification with DMS” value in assay [3] (S. aureus wild-type ribosomes) and in assay [6] (E. coli wild-type ribosomes) was “protect” in each case. Besides, the Kd on S. aureus ribosome (S. aureus ribosome, resulting from competition IC50) came to 0.012 ± 0.001 µM; in the assay on E. coli ribosome (E. coli ribosome, resulting from competition IC50), 0.062 ± 0.003 µM; on S. aureus 70S ribosomes it was 0.05 ± 0.013 µM. In addition, the half-maximal inhibitory concentration (IC50) on S. aureus ribosome (competition with 100 nM [14C]erythromycin, 100 nM S. aureus ribosomes, read-out: IC50 of displacement of erythromycin) came out at 0.117 ± 0.003 µM; with E. coli ribosome (competition with 100 nM [14C]erythromycin, 100 nM E. coli ribosomes, read-out: IC50 of displacement of erythromycin), 0.155 ± 0.008 µM; in [5] it was 1.1 µM.
